According to paper PMC11637378, “Optogenetic screening of MCT1 activity implicates a cluster of non-steroidal anti-inflammatory drugs (NSAIDs) as inhibitors of lactate transport” (PLOS ONE, 2024):

The compounds below were run on parent strain (SAWy518). Settings: not given.

Q: How did the Offscreen_18hr turn out when O=C(O)/C=C/C=C/c1ccccc1 [JUAREZIC ACID] was run?
A: Its Offscreen_18hr is 0.6813.

Q: And the Offscreen_24hr?
A: The Offscreen_24hr was 0.7831.

Q: What about the Offscreen_42hr of the same compound?
A: The Offscreen_42hr was 0.827.

Q: How did the Offscreen_18hr turn out when COc1cc(C)c2c(=O)c(-c3ccccc3)coc2c1 [METHOXYVONE] was run?
A: The Offscreen_18hr was 0.7685.

Q: And the Offscreen_24hr?
A: Its Offscreen_24hr is 0.8867.

Q: And the Offscreen_42hr?
A: Its Offscreen_42hr is 0.9442.

Q: Cc1cc(C(C)(C)CC(C)(C)C)ccc1OCCOCC[N+](C)(C)Cc1ccccc1.[Cl-] [METHYLBENZETHONIUM CHLORIDE] was tested. Which Offscreen_18hr did it give?
A: Its Offscreen_18hr is 0.7745.

Q: What about the Offscreen_24hr of the same compound?
A: Its Offscreen_24hr is 0.875.

Q: And the Offscreen_42hr?
A: Its Offscreen_42hr is 0.932.

Q: How did the Offscreen_18hr turn out when CC[N+](CC)(CC)CCOc1ccc(/C=C/c2ccccc2)cc1 [MG 624] was run?
A: Its Offscreen_18hr is 0.5585.

Q: What about the Offscreen_24hr of the same compound?
A: Its Offscreen_24hr is 0.7684.

Q: What about the Offscreen_42hr of the same compound?
A: The Offscreen_42hr was 0.9127.

Q: With O=C(O)[C@]1(Cc2cccc(Nc3nccs3)n2)CC[C@@H](Oc2cccc(Cl)c2F)CC1 [MK-5108 (VX-689)] as the compound, how does the Offscreen_18hr read?
A: Its Offscreen_18hr is 0.6785.

Q: What about the Offscreen_24hr of the same compound?
A: Its Offscreen_24hr is 0.8599.

Q: What about the Offscreen_42hr of the same compound?
A: The Offscreen_42hr was 0.9444.

Q: Which results are given for Cl.O=S(=O)(c1cccc2c(I)cccc12)N1CCCNCC1 [ML-7, reference compound]?
A: Offtarget: NO; Offtarget_sub: 0.3788

Q: What does the source list for O=[N+]([O-])/C=C/c1ccc2c(c1)OCO2 [MNS]?
A: Offscreen_18hr: 0.2427; Offscreen_24hr: 0.4675; Offscreen_42hr: 0.9062

Q: For COc1c(C)c2c(c(O)c1C/C=C(\C)CCC(=O)OCCN1CCOCC1)C(=O)OC2 [MYCOPHENOLATE MOFETIL], which Offscreen_18hr is on record?
A: The Offscreen_18hr was 0.5798.

Q: And the Offscreen_24hr?
A: Its Offscreen_24hr is 0.792.

Q: What about the Offscreen_42hr of the same compound?
A: Its Offscreen_42hr is 0.9179.

Q: Which results are given for COc1c(C)c2c(c(O)c1C/C=C(\C)CCC(=O)O)C(=O)OC2 [MYCOPHENOLIC ACID]?
A: Offscreen_18hr: 0.6454; Offscreen_24hr: 0.8395; Offscreen_42hr: 0.9254

Q: Which results are given for CN(C)c1ccc2nc3ccc(=[N+](C)C)cc-3sc2c1.O.O.O.[Cl-] [Methylene Blue]?
A: Offscreen_18hr: 0.8664; Offscreen_24hr: 0.9565; Offscreen_42hr: 1.0182

Q: For CCN(CC)C(=O)[C@]1(c2ccccc2)C[C@@H]1CN.Cl [Milnacipran hydrochloride], which Offscreen_18hr is on record?
A: The Offscreen_18hr was 0.8463.

Q: What about the Offscreen_24hr of the same compound?
A: Its Offscreen_24hr is 0.9181.

Q: What about the Offscreen_42hr of the same compound?
A: The Offscreen_42hr was 0.9801.

Q: Which Offscreen_18hr does the source give for COc1c(C)c2c(c(O)c1C/C=C(\C)CCC(=O)O)C(=O)OC2 [Mycophenolic (Mycophenolate)] here?
A: The Offscreen_18hr was 0.6524.

Q: And the Offscreen_24hr?
A: The Offscreen_24hr was 0.8532.

Q: What about the Offscreen_42hr of the same compound?
A: The Offscreen_42hr was 0.951.

Q: How did the Offscreen_18hr turn out when O=[N+]([O-])c1ccc(O)c2ncccc12 [NITROXOLINE] was run?
A: The Offscreen_18hr was 0.0416.

Q: What about the Offscreen_24hr of the same compound?
A: Its Offscreen_24hr is 0.0414.

Q: What about the Offscreen_42hr of the same compound?
A: Its Offscreen_42hr is 0.0729.

Q: How did the OffScreen_percentage turn out when CC(Cc1ccc(O)c(O)c1)C(C)Cc1ccc(O)c(O)c1 (stereo not drawn) [Nordihydroguaiaretic acid, reference compound] was run?
A: Its OffScreen_percentage is 101.227 percentage.

Q: What about the Offscreen_18hr of the same compound?
A: The Offscreen_18hr was 0.8169.

Q: What about the Offscreen_24hr of the same compound?
A: Its Offscreen_24hr is 0.9084.

Q: What about the Offscreen_42hr of the same compound?
A: The Offscreen_42hr was 0.9699.

Q: What about the Read_percentage of the same compound?
A: The Read_percentage was 101.227 percentage.

Q: Which results are given for NCC(=O)Nc1ccc(-n2nc(C(F)(F)F)cc2-c2ccc3c(ccc4ccccc43)c2)cc1 [OSU-03012 (AR-12)]?
A: Offscreen_18hr: 0.0821; Offscreen_24hr: 0.1608; Offscreen_42hr: 0.9195

Q: For O=C(/C=C/c1ccc(O)c(O)c1)OCCc1ccccc1 [PHENETHYL CAFFEATE (CAPE)], which Offscreen_18hr is on record?
A: The Offscreen_18hr was 0.3307.

Q: And the Offscreen_24hr?
A: Its Offscreen_24hr is 0.5133.

Q: What about the Offscreen_42hr of the same compound?
A: The Offscreen_42hr was 0.8223.

Q: O=C1c2ccccc2C(=O)c2c(O)c(O)cc(O)c21 [PURPURIN] was tested. Which Offscreen_18hr did it give?
A: The Offscreen_18hr was 0.5082.

Q: And the Offscreen_24hr?
A: The Offscreen_24hr was 0.6741.

Q: And the Offscreen_42hr?
A: Its Offscreen_42hr is 0.7778.

Q: Which Read_percentage does the source give for CCCc1c(-c2ccc(O)cc2)nn(-c2ccc(O)cc2)c1-c1ccc(O)cc1 [Propylpyrazole triol] here?
A: The Read_percentage was 98.9963 percentage.

Q: CO[C@H]1C[C@@H]2CC[C@@H](C)[C@@](O)(O2)C(=O)C(=O)N2CCCC[C@H]2C(=O)O[C@H]([C@H](C)C[C@@H]2CC[C@@H](O)[C@H](OC)C2)CC(=O)[C@H](C)/C=C(\C)[C@@H](O)[C@@H](OC)C(=O)[C@H](C)C[C@H](C)/C=C/C=C/C=C/1C [Rapamycin] was tested. Which Offscreen_18hr did it give?
A: Its Offscreen_18hr is 0.0498.

Q: What about the Offscreen_24hr of the same compound?
A: Its Offscreen_24hr is 0.0505.

Q: What about the Offscreen_42hr of the same compound?
A: Its Offscreen_42hr is 0.0758.

Q: Nc1ccc(-c2nc3ccc(-c4nc5cc(N)ccc5[nH]4)cc3[nH]2)cc1 [Ro 90-7501] was tested. Which Offscreen_18hr did it give?
A: The Offscreen_18hr was 0.6647.

Q: And the Offscreen_24hr?
A: Its Offscreen_24hr is 0.8739.

Q: What about the Offscreen_42hr of the same compound?
A: Its Offscreen_42hr is 0.9612.

Q: Which OffScreen_percentage does the source give for CS(=O)(=O)c1ccc(C2=C(c3ccccc3)C(=O)OC2)cc1 [Rofecoxib, reference compound] here?
A: Its OffScreen_percentage is 103.916 percentage.

Q: And the Offscreen_18hr?
A: Its Offscreen_18hr is 0.8386.

Q: And the Offscreen_24hr?
A: Its Offscreen_24hr is 0.9205.

Q: And the Offscreen_42hr?
A: Its Offscreen_42hr is 0.975.

Q: And the Read_percentage?
A: Its Read_percentage is 103.916.

Q: N.N.N.N.N.N.N.N.N.N.N.N.N.N.[Cl-].[Cl-].[Cl-].[Cl-].[Cl-].[Cl-].[O-2].[O-2].[Ru+3].[Ru+3].[Ru+4] [Ruthenium red] was tested. Which Offscreen_18hr did it give?
A: Its Offscreen_18hr is 0.6166.

Q: What about the Offscreen_24hr of the same compound?
A: Its Offscreen_24hr is 0.8198.

Q: What about the Offscreen_42hr of the same compound?
A: Its Offscreen_42hr is 0.9382.

Q: What does the source list for N#CC[C@@H](C1CCCC1)n1cc(-c2ncnc3[nH]ccc23)cn1 [S-Ruxolitinib (INCB018424)]?
A: Offscreen_18hr: 0.6167; Offscreen_24hr: 0.8199; Offscreen_42hr: 0.9411

Q: How did the Offscreen_18hr turn out when CC[C@@H](C(=O)[C@@H](C)[C@@H](O)[C@H](C)[C@@H]1O[C@@H]([C@@H](CC)C(=O)[O-])CC[C@@H]1C)[C@H]1OC2(C=C[C@@H](O)[C@]3(CC[C@@](C)([C@H]4CC[C@](O)(CC)[C@H](C)O4)O3)O2)[C@H](C)C[C@@H]1C.[Na+] (stereo partly drawn) [SALINOMYCIN, SODIUM] was run?
A: Its Offscreen_18hr is 0.1472.

Q: And the Offscreen_24hr?
A: Its Offscreen_24hr is 0.2295.

Q: What about the Offscreen_42hr of the same compound?
A: Its Offscreen_42hr is 0.8421.

Q: Which Offtarget does the source give for NS(=O)(=O)c1ccc(-n2nc(C(F)(F)F)cc2-c2ccc(Cl)cc2)cc1 [SC-236, reference compound] here?
A: The Offtarget was “NO”.

Q: And the Offtarget_sub?
A: Its Offtarget_sub is 0.2541.

Q: CO[C@H]1C[C@@H]2CC[C@@H](C)[C@@](O)(O2)C(=O)C(=O)N2CCCC[C@H]2C(=O)O[C@H]([C@H](C)C[C@@H]2CC[C@@H](O)[C@H](OC)C2)CC(=O)[C@H](C)/C=C(\C)[C@@H](O)[C@@H](OC)C(=O)[C@H](C)C[C@H](C)/C=C/C=C/C=C/1C [SIROLIMUS] was tested. Which Offscreen_18hr did it give?
A: Its Offscreen_18hr is 0.341.

Q: And the Offscreen_24hr?
A: Its Offscreen_24hr is 0.5452.

Q: What about the Offscreen_42hr of the same compound?
A: Its Offscreen_42hr is 0.8609.

Q: With Oc1ccc(Nc2nc(-c3ccc(Cl)cc3)cs2)cc1 [SKI II] as the compound, how does the Offscreen_18hr read?
A: Its Offscreen_18hr is 0.4105.

Q: What about the Offscreen_24hr of the same compound?
A: The Offscreen_24hr was 0.6287.

Q: What about the Offscreen_42hr of the same compound?
A: The Offscreen_42hr was 0.8658.

Q: What does the source list for CC[C@H](C(=O)[C@H](C)[C@@H](O)[C@@H](C)[C@@H]1O[C@@H]([C@@H](CC)C(=O)O)CC[C@H]1C)[C@H]1O[C@]2(C=C[C@@H](O)[C@]3(CC[C@@](C)([C@H]4CC[C@](O)(CC)[C@H](C)O4)O3)O2)[C@H](C)C[C@H]1C [Salinomycin (Procoxacin)]?
A: Offscreen_18hr: 0.8013; Offscreen_24hr: 0.892; Offscreen_42hr: 0.9461

Q: With C=CC[C@@H]1/C=C(\C)C[C@H](C)C[C@H](OC)[C@H]2O[C@@](O)(C(=O)C(=O)N3CCCC[C@H]3C(=O)O[C@H](/C(C)=C/[C@@H]3CC[C@@H](O)[C@H](OC)C3)[C@H](C)[C@@H](O)CC1=O)[C@H](C)C[C@@H]2OC [TACROLIMUS] as the compound, how does the Offscreen_18hr read?
A: The Offscreen_18hr was 0.727.

Q: And the Offscreen_24hr?
A: Its Offscreen_24hr is 0.8973.

Q: What about the Offscreen_42hr of the same compound?
A: Its Offscreen_42hr is 0.9661.

Q: How did the Offscreen_18hr turn out when O=C1NC(=O)/C(=C\c2cccc(C(F)(F)F)c2)S1 [TCS PIM-1 4a] was run?
A: The Offscreen_18hr was 0.5379.

Q: What about the Offscreen_24hr of the same compound?
A: The Offscreen_24hr was 0.7077.

Q: And the Offscreen_42hr?
A: The Offscreen_42hr was 0.7912.

Q: With O=C(O)Cc1cc(I)c(Oc2ccc(O)c(I)c2)c(I)c1 [TIRATRICOL] as the compound, how does the Offscreen_18hr read?
A: The Offscreen_18hr was 0.6885.

Q: And the Offscreen_24hr?
A: Its Offscreen_24hr is 0.8174.

Q: And the Offscreen_42hr?
A: The Offscreen_42hr was 0.855.

Same assay, conditions: parent strain growth reading, 18 hr

Q: How did the Offscreen_18hr turn out when CN(C)c1ccc2nc3ccc(=[N+](C)C)cc-3sc2c1 [Methylene Blue trihydrate] was run?
A: The Offscreen_18hr was 0.8664.

Same assay, conditions: parent strain growth reading, 24 hr

Q: CN(C)c1ccc2nc3ccc(=[N+](C)C)cc-3sc2c1 [Methylene Blue trihydrate] was tested. Which Offscreen_24hr did it give?
A: Its Offscreen_24hr is 0.9565.

Same assay, conditions: parent strain growth reading, 42 hr

Q: With CN(C)c1ccc2nc3ccc(=[N+](C)C)cc-3sc2c1 [Methylene Blue trihydrate] as the compound, how does the Offscreen_42hr read?
A: The Offscreen_42hr was 1.0182.
